Marks after values point to notes of the source that are not given here.
Experiments:
Assay type in all cases: in vivo, SD rats
[1] = system: MIA-induced model of osteoarthritis and inflammatory pain in rats; assay: Electronic von Frey test, various GLP-1R agonists, MIA-induced model (Example 7, cycle 1)
Procedure: (§1) Seven groups comprising 8 SD rats per group were allocated for this study performed in 2 cycles (4 SD rats/cycle). Chemically-induced OA disease was performed on six out of seven groups by injecting intra-articularly (IA) in the right knee joint 3 mg of MIA in 30 μL on day 1. The control group (sham/vehicle control) received 30 μL of saline IA in the right knee joint. […] All groups 31M-37M received 1 IA injection of either saline (group 31M) or MIA (groups 32M to 37M) on day 1 and the treatment injection on day 3. During the study, body weight measurements (twice a week) and von Frey tests using electronic von Frey apparatus (on day 2, 7, for C1) and von Frey filaments (on day 10, 18, 24 and 30 for Cl, and on day 2, 7, 10, 18, 24 and 30 for C2) were performed. Group allocation was performed on day 2, based on von Frey results. Knee harvesting was performed for optional analyses at study termination at day 32.
(§2) A solution comprising dulaglutide is prepared from the product Trulicity®. Trulicity® is a commercial dulaglutide drug. Trulicity® is supplied as a “ready to use” solution at 4.5 mg/0.50 mL. It will be diluted in the appropriate volume of vehicle (NaCl 0.9%) for injection into knee joint of 270 μg in 30 μL per rat for group 33M.
(§3) Bydureon® is supplied as a “ready to use” solution at 2 mg/0.65 mL. It will be diluted in the appropriate volume of vehicle (NaCl 0.9%) for injection into knee joint of 92.31 μg in 30 μL per rat for group 34M.
(§4) Bydureon Bcise® is supplied as a “ready to use” solution at 2.35 mg/mL. It will be diluted in the appropriate volume of vehicle (NaCl 0.9%) for injection into knee joint of 70.6 μg in 30 μL per rat for group 35M.
(§5) A solution comprising lixisenatide is prepared from the product Adlyxin®. Adlyxin® is a commercial lixisenatide drug. Adlyxin® is supplied as a “ready to use” solution at 100 μg/mL. It will be diluted in the appropriate volume of vehicle (NaCl 0.9%) for injection into knee joint of 3 μg in 30 μL per rat for group 36M.
(§6) It will be diluted in the appropriate volume of vehicle (NaCl 0.9%) for injection into knee joint of 180 μg in 30 μL per rat for group 37M.
(§7) 56 male SD rats aged 9 weeks were anesthetized via a chamber induction technique using inhalation anesthesia (Isoflurane at 5%). During the procedure, the animal was maintained under Isoflurane at a level between 1.5 and 3% with an air flow rate of 1-2 liters/minute. After induction of anesthesia, the right hind limb skin surface was clipped free of hair using electric animal clippers. After shaving, the area surrounding the knee joint was wiped with alcohol. A volume of 30 μL containing 3 mg MIA was injected intra-articularly (IA) in the knee joint through the patellar tendon. A 29-gauge, 0.5-inch needle that fitted with cannulation tubing was used such that only 3 to 4 mm of the needle was allowed to puncture the joint. After injection, the knee was massaged to ensure even distribution of the solution. Animals were injected once on day 1 (groups 32M, 33M, 34M, 35M, 36M, 37M). For group 31M (sham control), 30 μL of injectable saline was injected into knee joint.
(§8) Von Frey test in the rats following MIA injection was conducted according to 4P-Pharma's proceedings “Mechanical Neuropathic Pain Evaluation (electronic Von Frey)” and to 4P-Pharma's proceedings “Mechanical Neuropathic Pain Evaluation (Von Frey)”. Rats were placed individually in the designated transparent Plexiglas chambers and allowed to acclimate for 10-15 min. Withdrawal response to mechanical stimulation was determined using electronic von Frey apparatus (BIO-EVF5, Bioseb) with a 0.5 mm diameter tip placed on the stimulator handle applied from underneath the cage through openings (12×12 mm) in the plastic mesh floor or with von Frey filaments (Bio-VF-M, Bioseb). The withdrawal response in gram-force for each rat was calculated from three trials for von Frey apparatus and once with von Frey filaments.

[2] = system: MIA-induced model of osteoarthritis and inflammatory pain in rats; assay: Von Frey filaments test, various GLP-1R agonists, MIA-induced model (Example 7)
Procedure: as §1, §2, §3, §4, §5, §6, §7, §8

[3] = system: MIA-induced model of osteoarthritis and inflammatory pain in rats; assay: Electronic and equivalent von Frey scores normalized to vehicle group (Example 7)
Procedure: Allodynia in rats following OA induction on day 1 was evaluated on day 2 and on day 7 using both Electronic (for cycle 1) and von Frey filaments (for cycle 2). Both tests are reliable and valid for the assessment of the mechanical sensitivity in the ipsilateral hind paw of rats. Additionally, von Frey filament score can be transposed approximately to an equivalent electronic von Frey score (theorical pressure in grams/mm^2). To assure the obtained results, we performed a test using both von Frey filaments and Electronic von Frey apparatus on three rats from three different groups (31M, 32M and 37M).
Equivalent electronic von Frey score was calculated using the “Aesthesio Precision Tactile sensory data chart” from the results obtained with von Frey filaments. Thus, to have a more representative vision of the results obtained in previous experiments using the electronic von Frey apparatus, we combine both the electronic von Frey scores obtained from Cycle 1 (Day 2 and 7) and the equivalent score calculated from the results obtained with the von Frey filaments for Cycle 1 (from day 10) and Cycle 2.

[4] = 270 μg IA once on day 3, D2 (baseline before treatment)
[5] = 180 μg IA once on day 3, D2 (baseline before treatment)
[6] = 3 μg IA once on day 3, D2 (baseline before treatment)

dulaglutide
right paw withdrawal threshold, Electronic von Frey (mean) [1, 4]: 30.03 grams
right paw withdrawal threshold, Electronic von Frey (mean) ([1]; 270 μg IA once on day 3, D7): 50.98 grams
right paw withdrawal threshold, von Frey filaments (mean) [2, 4]: 2.28^$$$ grams
right paw withdrawal threshold, von Frey filaments (mean) ([2]; 270 μg IA once on day 3, D7): 2.85 grams
right paw withdrawal threshold, von Frey filaments (mean) ([2]; 270 μg IA once on day 3, D10): 4.75*** grams
right paw withdrawal threshold, von Frey filaments (mean) ([2]; 270 μg IA once on day 3, D18): 6.50*** grams
right paw withdrawal threshold, von Frey filaments (mean) ([2]; 270 μg IA once on day 3, D24): 7.00*** grams
right paw withdrawal threshold, von Frey filaments (mean) ([2]; 270 μg IA once on day 3, D30): 8.25*** grams

liraglutide
right paw withdrawal threshold, Electronic von Frey (mean) [1, 5]: 32.88 grams
right paw withdrawal threshold, Electronic von Frey (mean) ([1]; 180 μg IA once on day 3, D7): 63.60 grams
right paw withdrawal threshold, von Frey filaments (mean) [2, 5]: 1.60^$$$ grams
right paw withdrawal threshold, von Frey filaments (mean) ([2]; 180 μg IA once on day 3, D7): 8.00*** grams
right paw withdrawal threshold, von Frey filaments (mean) ([2]; 180 μg IA once on day 3, D10): 9.63*** grams
right paw withdrawal threshold, von Frey filaments (mean) ([2]; 180 μg IA once on day 3, D18): 11.63*** grams
right paw withdrawal threshold, von Frey filaments (mean) ([2]; 180 μg IA once on day 3, D24): 10.25*** grams
right paw withdrawal threshold, von Frey filaments (mean) ([2]; 180 μg IA once on day 3, D30): 9.00*** grams
von Frey score normalized to vehicle group (31M) ([3]; 180 μg IA (group 37M), at day 10, level maintained for 20 days): 70%

lixisenatide
right paw withdrawal threshold, Electronic von Frey (mean) [1, 6]: 33.55 grams
right paw withdrawal threshold, Electronic von Frey (mean) ([1]; 3 μg IA once on day 3, D7): 55.15 grams
right paw withdrawal threshold, von Frey filaments (mean) [2, 6]: 1.30^$$$ grams
right paw withdrawal threshold, von Frey filaments (mean) ([2]; 3 μg IA once on day 3, D7): 5.00** grams
right paw withdrawal threshold, von Frey filaments (mean) ([2]; 3 μg IA once on day 3, D10): 7.63*** grams
right paw withdrawal threshold, von Frey filaments (mean) ([2]; 3 μg IA once on day 3, D18): 7.75*** grams
right paw withdrawal threshold, von Frey filaments (mean) ([2]; 3 μg IA once on day 3, D24): 7.25*** grams
right paw withdrawal threshold, von Frey filaments (mean) ([2]; 3 μg IA once on day 3, D30): 8.88*** grams
von Frey score normalized to vehicle group (31M) ([3]; 3 μg IA (group 36M), raised to and kept): 60%

Source: US20240293514A1, “PHARMACEUTICAL COMPOSITIONS COMPRISING GLP-1R AGONISTS” (4MOVING BIOTECH, priority 2021, published 2024)
